Assay [1] addresses T1, human recombinant bradykinin B1 receptor (Homo sapiens, UniProt P46663).
T1 construct: host or cells: CHO cells, clone hB1-A5
T1 sequence (P46663 1-353): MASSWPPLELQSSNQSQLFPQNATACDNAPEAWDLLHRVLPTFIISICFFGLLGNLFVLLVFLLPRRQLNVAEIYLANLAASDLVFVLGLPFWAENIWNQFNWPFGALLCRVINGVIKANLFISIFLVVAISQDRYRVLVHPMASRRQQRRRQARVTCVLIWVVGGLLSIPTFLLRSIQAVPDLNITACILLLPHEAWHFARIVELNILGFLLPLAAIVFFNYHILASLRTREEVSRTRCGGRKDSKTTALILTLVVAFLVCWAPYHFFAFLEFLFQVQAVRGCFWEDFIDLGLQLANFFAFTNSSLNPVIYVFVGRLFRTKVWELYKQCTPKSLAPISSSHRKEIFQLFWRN
The assay can be described thus: Human recombinant bradykinin B1 receptor competitive radioligand binding. In a few lines:
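Competition radioligand binding on CHO-expressed hB1 membranes, using [3,4-prolyl-3,4-^3H(N)]-[Des-Arg^10] Kallidin as tracer, 15 min at 25° C. Excess Lys-des-Arg^9-Bradykinin (10 μM) set nonspecific binding. Sigmoidal fits of at least seven concentrations gave IC50, converted to Ki via Cheng-Prusoff; KD from Scatchard.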

In assay [2] the target is T2, recombinant human B1 receptors (Homo sapiens, UniProt P46663).
T2 construct: host or cells: CHO (CHO-B1)
T2 sequence (P46663 1-353): T1 sequence (P46663 1-353)
The assay can be described thus: Functional assay: antagonist potency by cytosolic calcium measurement (plate reader fluorimeter) in CHO-B1 cells, agonist LysDABK. The class given is cell-based. In a few lines: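 IC50 is the concentration giving half-maximal inhibition of the LysDABK (EC80) calcium response, fitted from at least three experiments. CHO cells stably expressing human B1 were dye-loaded, exposed to compound for 20-25 min, then read by fluo-4 fluorescence (ΔF/F) at 37 °C.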

Where [3] appears, read: hB1 expressed in CHO cells, [3H]-[Des-Arg10] Kallidin radioligand, read-out: B1 binding.
Setting [4] is: CHO-B1 cells, inhibition of LysDABK (EC80)-evoked [Ca2+]i elevation, read-out: B1 func.

Data on 18 compounds can be found in US20130217702A1 (Richter Gedeon Nyrt., priority 2010, published 2013).

Structures are written as SMILES. Like-named read-outs stand apart in the source and are kept apart here.

Turning to `COc1ccc2c(c1)c(Cl)c(C#N)n2-c1ccc(CNC(=O)C2(NC(=O)c3cc(OC)no3)CC2)cc1` [Example 52, 3-Methoxy-isoxazole-5-carboxylic acid {1-[4-(3-chloro-2-cyano-5-methoxy-indol-1-yl)-benzylcarbamoyl]-cyclopropyl}-amide], the Ki in assay [1] (setting [3]) is less than 20 nM. The IC50 in assay [2] (setting [4]) was less than 20 nM.

For `Cc1nc(-c2c(Cl)c3ccccc3n2-c2ccc(CNC(=O)C3(NC(=O)c4cccc(F)c4)CC3)cc2)no1` [Example 178, N-(1-{4-[3-Chloro-2-(5-methyl-[1,2,4]oxadiazol-3-yl)-indol-1-yl]-benzylcarbamoyl}-cyclopropyl)-3-fluoro-benzamide], the Ki in assay [1] (setting [3]) is less than 20 nM. Further, the IC50 in assay [2] (setting [4]) was less than 20 nM.

Turning to `Cc1nc(-c2c(Cl)c3ccccc3n2-c2ccc(CNC(=O)C3(NC(=O)c4cc(C(F)(F)F)ccc4F)CC3)cc2)no1` [Example 96, N-(1-{4-[3-Chloro-2-(5-methyl-[1,2,4]oxadiazol-3-yl)-indol-1-yl]-benzylcarbamoyl}-cyclopropyl)-2-fluoro-5-trifluoromethyl-benzamide], the Ki in assay [1] (setting [3]) was less than 20 nM. The IC50 in assay [2] (setting [4]) was less than 20 nM.

Regarding `Cc1nc(-c2c(Cl)c3ccccc3n2-c2ccc(CNC(=O)C3(NC(=O)c4sc(C)nc4C)CC3)cc2)no1` [Example 150, 2,4-Dimethyl-thiazole-5-carboxylic acid (1-{4-[3-chloro-2-(5-methyl-[1,2,4]oxadiazol-3-yl)-indol-1-yl]-benzylcarbamoyl}-cyclopropyl)-amide], the Ki in assay [1] (setting [3]) was less than 20 nM. Besides, the IC50 in assay [2] (setting [4]) lay within 20 to 100 nM.

As to `Cc1nc(-c2c(Cl)c3cc(F)ccc3n2-c2ccc(CNC(=O)C3(NC(=O)c4cccnc4Cl)CC3)cc2)no1` [Example 85, 2-Chloro-N-(1-{4-[3-chloro-5-fluoro-2-(5-methyl-[1,2,4]oxadiazol-3-yl)-indol-1-yl]-benzylcarbamoyl}-cyclopropyl)-nicotinamide], the Ki in assay [1] (setting [3]) is less than 20 nM. Further, in assay [2] (setting [4]), the IC50 was less than 20 nM.

With `COc1cc(C(=O)NC2(C(=O)NCc3ccc(-n4c(C#N)cc5cc(F)ccc54)cc3)CC2)on1` [Example 49, 3-Methoxy-isoxazole-5-carboxylic acid {1-[4-(2-cyano-5-fluoro-indol-1-yl)-benzylcarbamoyl]-cyclopropyl}-amide], the Ki in assay [1] (setting [3]) was less than 20 nM. The IC50 in assay [2] (setting [4]) is less than 20 nM.

In the case of `COc1ccc2c(c1)c(Cl)c(-c1noc(C)n1)n2-c1ccc(CNC(=O)C2(NC(=O)c3cnc(C)cn3)CC2)cc1` [Example 129, 5-Methyl-pyrazine-2-carboxylic acid (1-{4-[3-chloro-5-methoxy-2-(5-methyl-[1,2,4]oxadiazol-3-yl)-indol-1-yl]-benzylcarbamoyl}-cyclopropyl)-amide], the Ki in assay [1] (setting [3]) is less than 20 nM. Further, the IC50 in assay [2] (setting [4]) is less than 20 nM.

Take `Cc1nc(-c2c(Cl)c3ccccc3n2-c2ccc([C@@H](C)NC(=O)C3(NC(=O)C(F)(F)F)CC3)cc2)no1` [Example 40, (R)-1-(2,2,2-Trifluoro-acetylamino)-cyclopropanecarboxylic acid (1-{4-[3-chloro-2-(5-methyl-[1,2,4]oxadiazol-3-yl)-indol-1-yl]-phenyl}-ethyl)-amide]: the Ki in assay [1] (setting [3]) was less than 20 nM. Besides, the IC50 in assay [2] (setting [4]) was less than 20 nM.

As to `COc1cc(C(=O)NC2(C(=O)NCc3ccc(-n4c(-c5nnnn5C)c(Cl)c5ccccc54)cc3)CC2)on1` [Example 7, 3-Methoxy-isoxazole-5-carboxylic acid (1-{4-[3-chloro-2-(1-methyl-1H-tetrazol-5-yl)-indol-1-yl]-benzylcarbamoyl}-cyclopropyl)-amide], the Ki in assay [1] (setting [3]) is less than 20 nM. Further, the IC50 in assay [2] (setting [4]) is less than 20 nM.

Regarding `COc1cc(C(=O)NC2(C(=O)NCc3ccc(-n4c(C#N)c(Cl)c5ccccc54)cc3)CC2)on1` [Example 39, 3-Methoxy-isoxazole-5-carboxylic acid {1-[4-(3-chloro-2-cyano-indol-1-yl)-benzyl-carbamoyl]-cyclopropyl}-amide], the Ki in assay [1] (setting [3]) was less than 20 nM. In addition, the IC50 in assay [2] (setting [4]) was less than 20 nM.

Regarding `COc1cc(C(=O)NC2(C(=O)NCc3ccc(-n4c(-c5nc(C)no5)cc5cc(F)ccc54)cc3)CC2)on1` [Example 103, 3-Methoxy-isoxazole-5-carboxylic acid (1-{4-[5-fluoro-2-(3-methyl-[1,2,4]oxadiazol-5-yl)-indol-1-yl]-benzylcarbamoyl}-cyclopropyl)-amide], the Ki in assay [1] (setting [3]) was less than 20 nM. The IC50 in assay [2] (setting [4]) was less than 20 nM.

As to `COc1cc(C(=O)NC2(C(=O)NCc3ccc(-n4c(-c5noc(C)n5)cc5cc(Cl)ccc54)cc3)CC2)on1` [Example 53, 3-Methoxy-isoxazole-5-carboxylic acid (1-{4-[5-chloro-2-(5-methyl-[1,2,4]oxadiazol-3-yl)-indol-1-yl]-benzylcarbamoyl}-cyclopropyl)-amide], the Ki in assay [1] (setting [3]) is less than 20 nM. Further, in assay [2] (setting [4]), the IC50 is less than 20 nM.

For the compound `CCCc1cc(C(=O)NC2(C(=O)NCc3ccc(-n4c(-c5noc(C)n5)c(Cl)c5ccccc54)cc3)CC2)on1` [Example 42, 3-Propyl-isoxazole-5-carboxylic acid (1-{4-[3-chloro-2-(5-methyl-[1,2,4]oxadiazol-3-yl)-indol-1-yl]-benzylcarbamoyl}-cyclopropyl)-amide], the Ki in assay [1] (setting [3]) is less than 20 nM. Further, the IC50 in assay [2] (setting [4]) was less than 20 nM.

For the compound `Cc1nc(-c2c(Cl)c3cc(F)ccc3n2-c2ccc(CNC(=O)C3(NC(=O)c4cccc(F)c4)CC3)cc2)no1` [Example 86, N-(1-{4-[3-Chloro-5-fluoro-2-(5-methyl-[1,2,4]oxadiazol-3-yl)-indol-1-yl]-benzylcarbamoyl}-cyclopropyl)-3-fluoro-benzamide], in assay [1] (setting [3]), the Ki was less than 20 nM. Further, in assay [2] (setting [4]), the IC50 was less than 20 nM.

In the case of `Cc1nc(-c2c(Cl)c3ccccc3n2-c2ccc(CNC(=O)C3(NC(=O)c4cccnc4Cl)CC3)cc2)no1` [Example 153, 2-Chloro-N-(1-{4-[3-chloro-2-(5-methyl-[1,2,4]oxadiazol-3-yl)-indol-1-yl]-benzylcarbamoyl}-cyclopropyl)-nicotinamide], the Ki in assay [1] (setting [3]) was less than 20 nM. In addition, the IC50 in assay [2] (setting [4]) was less than 20 nM.

Turning to `CN1CCN(C(=O)C2CCN(S(=O)(=O)c3ccc(NCC(c4ccccc4)c4ccccc4)c(C(=O)N4CCOCC4)c3)CC2)CC1` [NVP-SAA164, 4-{2-[(2,2-diphenyl-ethyl)-amino]-5-{4-[4-[(4-methyl-1-piperazinyl)-carbonyl]-1-piperidinyl]-sulfonyl}-benzoyl}-morpholine, reference compound], the Ki in assay [1] (reference compounds, binding test, measured by the applicant, read-out: Ki) came out at 8 nM. Moreover, the IC50 in assay [2] (reference compounds, functional test, measured by the applicant, read-out: IC50) was 33 nM.

With `Cc1nc(-c2c(Cl)c3ccccc3n2-c2ccc(CNC(=O)C3(NC(=O)c4ccc(=O)[nH]c4)CC3)cc2)no1` [Example 160, 6-Oxo-1,6-dihydro-pyridine-3-carboxylic acid (1-{4-[3-chloro-2-(5-methyl-[1,2,4]oxadiazol-3-yl)-indol-1-yl]-benzylcarbamoyl}-cyclopropyl)-amide], the Ki in assay [1] (setting [3]) is less than 20 nM. Further, in assay [2] (setting [4]), the IC50 was less than 20 nM.

For `Cc1cnc(C(=O)NC2(C(=O)NCc3ccc(-n4c(-c5noc(C)n5)c(Cl)c5cc(Cl)ccc54)cc3)CC2)cn1` [Example 72, 5-Methyl-pyrazine-2-carboxylic acid (1-{4-[3,5-dichloro-2-(5-methyl-[1,2,4]oxadiazol-3-yl)-indol-1-yl]-benzylcarbamoyl}-cyclopropyl)-amide], in assay [1] (setting [3]), the Ki is less than 20 nM. For the same compound, in assay [2] (setting [4]), the IC50 was less than 20 nM.
